Laboratory results from patent US12133714B2, “Line excitation array detection microscopy” (BOARD OF REGENTS, THE UNIVERSITY OF TEXAS SYSTEM, priority 2018, dated 2024).
Entries after “also recorded” stand apart in the source; their conditions may differ.

Columns and labels:
[1] = system: polyQ40 strain C. elegans (polyglutamine mediated aggregation of YFP-labeled protein in body wall muscle cells); conditions: polyQ40 animals, earlier publication (ref. 37); cited from earlier work
[2] = system: polyQ40 strain C. elegans (polyglutamine mediated aggregation of YFP-labeled protein in body wall muscle cells); test: LEAD flow cytometry imaging of polyQ aggregation model C. elegans treated with drug; assay type: in vivo; conditions: for number of fluorescent protein aggregates per animal (median ± standard deviation): polyQ40 animals treated at L1 stage, imaged at late L4 stage, untreated polyQ40 27±3
Text: The model simulates human Huntington's disease through CAG repeats in the huntingtin allele, with 35 or more repeats resulting in polyglutamine (polyQ) mediated aggregation, protein misfolding, and cellular toxicity^36. Specifically, the polyQ40 strain was imaged with 40 CAG repeats at the late L4 stage when the disease phenotype presents as aggregation of YFP-labeled protein in the body wall muscle cells. The aggregates are 1-5 μm in diameter and distributed in 3D along the length of the animal, and therefore requires relatively high resolution volumetric imaging. […] Populations of up to 300 animals were imaged. The animals moved at 0.89±0.31 m/s through the imaging channel, resulting in an imaging time of 1.07±0.26 ms per animal with the majority of the population imaged within 1 second (See FIGS. 10B, 10C). The maximum available laser power of 4 mW at the sample was sufficient to utilize the full dynamic range of our collection system. […] Despite the ultrafast scanning, C. elegans images show SNRs exceeding 500 for the center PMT elements and slightly lower SNR for the less responsive surrounding elements in accordance with the PMT specifications (see FIG. 9D). 27±3 (median±standard deviation) aggregates per animal for the polyQ40 strain were found, similar to previous findings for worms at the same stage^36. […] PolyQ40 animals were treated with either 25 or 50 μM dronedarone at the L1 stage, and were imaged at the late L4 stage (FIG. 16A). The drug reduced aggregation to 16±5 and 7±2 aggregates per animal for 25 μM and 50 μM, respectively, showing a dose response (FIG. 16B). The system's high-speed 3D imaging capability for drug screening is established by the short imaging time for the effectivity of dronedarone reaches a statistically significant level—animals treated with 25 and 50 μM dronedarone reach p=0.001 in under 0.25 s and 0.10 s, respectively (FIG. 16C). […]

## CCCCc1oc2ccc(NS(C)(=O)=O)cc2c1C(=O)c1ccc(OCCCN(CCCC)CCCC)cc1 [dronedarone]
[1]
  effect on formation of aggregates, previously observed (in words): prevents the formation of aggregates in the polyQ40 animals
[2]; 25 μM
  number of fluorescent protein aggregates per animal (median ± standard deviation): 16±5 aggregates per animal
[2]; 50 μM
  number of fluorescent protein aggregates per animal (median ± standard deviation): 7±2 aggregates per animal
[2]; polyQ40 animals, 25 and 50 μM, LEAD imaging
  effect on formation of protein aggregates (in words): prevents the formation of protein aggregates with a dose response; also recorded: can reduce aggregation with a dose response
